Results taken from US7632918B2, “Semi-synthetic glycopeptides with antibiotic activity” (Novartis Vaccines and Diagnostics, Inc., priority 2005, dated 2009).
In brackets after ≈: the same amount, converted by molar mass.

Columns and labels:
Assay in all cases: MIC, broth microdilution in Meuller-Hinton broth (NCCLS)
[1] = test system: 533 S. epidermidis; type: cell-based, Staphylococus epidermidis; settings: clinical isolate
Protocol: (§1) Antibacterial activity in vitro was investigated by broth microdilution method in Meuller-Hinton broth as recommended by NCCLS. All strains tested were clinical isolates either sensitive or resistant to natural glycopeptides. Results are reported in the tables as MIC (minimal inhibitory concentration) in μg/ml.
(§2) The glycopeptides were tested against a variety of strains, indicated below, including Staphylococus epidermidis, Staphylococus haemolyticus, glycopeptides-intermediate Staphylococus aureus (GISA), glocopeptide-sensitive Enterococcus faecalis (GSE), and glocopeptide-resistant Enterococcus faecalis (GRE). Results are shown in the table as minimum inhibitory concentration (MIC) in units of μg/ml: […]

[2] = test system: 602 S. haemolyticus; type: cell-based, Staphylococus haemolyticus; settings: clinical isolate
Protocol: as §1, §2

[3] = test system: 3797 S. aureus (GISA); type: cell-based, Staphylococus aureus; settings: glycopeptides-intermediate clinical isolate
Protocol: as §1, §2

[4] = test system: 3798 S. aureus (GISA); type: cell-based, Staphylococus aureus; settings: glycopeptides-intermediate clinical isolate
Protocol: as §1, §2

[5] = test system: 568 E. faecium (GSE); type: cell-based; settings: glycopeptide-sensitive clinical isolate
Protocol: as §1, §2

[6] = test system: 569 E. faecium (GRE); type: cell-based; settings: glycopeptide-resistant clinical isolate
Protocol: as §1, §2

[7] = test system: 559 E. faecalis (GSE); type: cell-based, Enterococcus faecalis; settings: glycopeptide-sensitive clinical isolate
Protocol: as §1, §2

[8] = test system: 560 E. faecalis (GRE); type: cell-based, Enterococcus faecalis; settings: glycopeptide-resistant clinical isolate
Protocol: as §1, §2

Molecule	MIC 533 S. epidermidis [1] [µg/mL]	MIC 602 S. haemolyticus [2] [µg/mL]	MIC 3797 S. aureus (GISA) [3] [µg/mL]	MIC 3798 S. aureus (GISA) [4] [µg/mL]	MIC 568 E. faecium (GSE) [5] [µg/mL]	MIC 569 E. faecium (GRE) [6] [µg/mL]	MIC 559 E. faecalis (GSE) [7] [µg/mL]	MIC 560 E. faecalis (GRE) [8] [µg/mL]
CCCCc1ccc(CN[C@@H](CCCN)C(=O)NC2(C)CC(OC3C(Oc4c5cc6cc4Oc4ccc(cc4Cl)C(O)C(NC(=O)C(CC(C)C)NC)C(=O)NC(CC(N)=O)C(=O)NC6C(=O)NC4C(=O)NC(C(=O)NC(C(=O)O)c6cc(O)cc(O)c6-c6cc4ccc6O)C(OC4CC(C)(N)C(O)C(C)O4)c4ccc(cc4)O5)OC(CO)C(O)C3O)OC(C)C2O)cc1 (stereo partly drawn) [Compound 242]	0.25 (≈ 0.137 µM)	1 (≈ 0.55 µM)	4 (≈ 2.2 µM)	4 (≈ 2.2 µM)	0.5 (≈ 0.275 µM)	8 (≈ 4.4 µM)	1 (≈ 0.55 µM)	8 (≈ 4.4 µM)
CNC(CC(C)C)C(=O)NC1C(=O)NC(CC(N)=O)C(=O)NC2C(=O)NC3C(=O)NC(C(=O)NC(C(=O)O)c4cc(O)cc(O)c4-c4cc3ccc4O)C(OC3CC(C)(N)C(O)C(C)O3)c3ccc(cc3)Oc3cc2cc(c3OC2OC(CO)C(O)C(O)C2OC2CC(C)(NC(=O)C(N)CCCCN)C(O)C(C)O2)Oc2ccc(cc2Cl)C1O (stereo not drawn) [Compound 203]	0.13 (≈ 0.0771 µM)	0.13 (≈ 0.0771 µM)	4 (≈ 2.37 µM)	8 (≈ 4.74 µM)	0.25 (≈ 0.148 µM)	16 (≈ 9.49 µM)	0.25 (≈ 0.148 µM)	>64
CNC(CC(C)C)C(=O)NC1C(=O)NC(CC(N)=O)C(=O)NC2C(=O)NC3C(=O)NC(C(=O)NC(C(=O)O)c4cc(O)cc(O)c4-c4cc3ccc4O)C(O)c3ccc(c(Cl)c3)Oc3cc2cc(c3OC2OC(CO)C(O)C(O)C2OC2CC(C)(NC(=O)CNCc3ccc(F)cc3)C(O)C(C)O2)Oc2ccc(cc2Cl)C1O (stereo not drawn) [Compound 291]	4 (≈ 2.48 µM)	4 (≈ 2.48 µM)	4 (≈ 2.48 µM)	4 (≈ 2.48 µM)	1 (≈ 0.619 µM)	8 (≈ 4.96 µM)	1 (≈ 0.619 µM)	8 (≈ 4.96 µM)
CNC(CC(C)C)C(=O)NC1C(=O)NC(CC(N)=O)C(=O)NC2C(=O)NC3C(=O)NC(C(=O)NC(C(=O)O)c4cc(O)cc(O)c4-c4cc3ccc4O)C(OC3CC(C)(N)C(O)C(C)O3)c3ccc(cc3)Oc3cc2cc(c3OC2OC(CO)C(O)C(O)C2OC2CC(C)(NC(=O)CNCc3ccc(-c4ccc(Cl)cc4)cc3)C(O)C(C)O2)Oc2ccc(cc2Cl)C1O (stereo not drawn) [Compound 44]	0.5 (≈ 0.275 µM)	2 (≈ 1.1 µM)	4 (≈ 2.2 µM)	4 (≈ 2.2 µM)	1 (≈ 0.551 µM)	8 (≈ 4.41 µM)	1 (≈ 0.551 µM)	8 (≈ 4.41 µM)
CCCCc1ccc(CNCC(=O)NC2(C)CC(OC3C(Oc4c5cc6cc4Oc4ccc(cc4Cl)C(O)C(NC(=O)C(CC(C)C)NC)C(=O)NC(CC(N)=O)C(=O)NC6C(=O)NC4C(=O)NC(C(=O)NC(C(=O)O)c6cc(O)cc(O)c6-c6cc4ccc6O)C(OC4CC(C)(N)C(O)C(C)O4)c4ccc(cc4)O5)OC(CO)C(O)C3O)OC(C)C2O)cc1 (stereo not drawn) [Compound 57, N′-p-BuBnHNCH2CO eremomycin]	0.5 (≈ 0.284 µM)	2 (≈ 1.14 µM)	4 (≈ 2.27 µM)	4 (≈ 2.27 µM)	0.5 (≈ 0.284 µM)	4 (≈ 2.27 µM)	0.5 (≈ 0.284 µM)	4 (≈ 2.27 µM)
N′-stilbenylHNCH2CO eremomycin [Compound 192]	0.5	0.5	8	8	0.5	4	1	8
CNC(CC(C)C)C(=O)NC1C(=O)NC(CC(N)=O)C(=O)NC2C(=O)NC3C(=O)NC(C(=O)NC(C(=O)O)c4cc(O)cc(O)c4-c4cc3ccc4O)C(O)c3ccc(c(Cl)c3)Oc3cc2cc(c3OC2OC(CO)C(O)C(O)C2OC2CC(C)(NC(=O)CNc3ccc4ccccc4n3)C(O)C(C)O2)Oc2ccc(cc2Cl)C1O (stereo not drawn) [Compound 298]	8 (≈ 4.9 µM)	8 (≈ 4.9 µM)	8 (≈ 4.9 µM)	8 (≈ 4.9 µM)	4 (≈ 2.45 µM)	>64	2 (≈ 1.22 µM)	64 (≈ 39.2 µM)
CCCCCCCCOc1ccc(CNCC(=O)NC2(C)CC(OC3C(Oc4c5cc6cc4Oc4ccc(cc4Cl)C(O)C4NC(=O)C(NC(=O)C6NC(=O)C(CC(N)=O)NC(=O)C(NC(=O)C(CC(C)C)NC)C(O)c6ccc(c(Cl)c6)O5)c5ccc(O)c(c5)-c5c(O)cc(O)cc5C(C(=O)NCc5ccc(F)cc5)NC4=O)OC(CO)C(O)C3O)OC(C)C2O)cc1 (stereo not drawn) [Compound 277]	4 (≈ 2.18 µM)	8 (≈ 4.37 µM)	8 (≈ 4.37 µM)	4 (≈ 2.18 µM)	4 (≈ 2.18 µM)	8 (≈ 4.37 µM)	4 (≈ 2.18 µM)	8 (≈ 4.37 µM)
CNC(CC(C)C)C(=O)NC1C(=O)NC(CC(N)=O)C(=O)NC2C(=O)NC3C(=O)NC(C(=O)NC(C(=O)O)c4cc(O)cc(O)c4-c4cc3ccc4O)C(O)c3ccc(c(Cl)c3)Oc3cc2cc(c3OC2OC(CO)C(O)C(O)C2OC2CC(C)(NC(=O)CNCc3ccc(C(F)(F)F)cc3)C(O)C(C)O2)Oc2ccc(cc2Cl)C1O (stereo not drawn) [Compound 290]	4 (≈ 2.4 µM)	4 (≈ 2.4 µM)	4 (≈ 2.4 µM)	4 (≈ 2.4 µM)	4 (≈ 2.4 µM)	>64	2 (≈ 1.2 µM)	>64
CNC(CC(C)C)C(=O)NC1C(=O)NC(CC(N)=O)C(=O)NC2C(=O)NC3C(=O)NC(C(=O)NC(C(=O)O)c4cc(O)cc(O)c4-c4cc3ccc4O)C(OC3CC(C)(N)C(O)C(C)O3)c3ccc(cc3)Oc3cc2cc(c3OC2OC(CO)C(O)C(O)C2OC2CC(C)(NC(=O)CNCc3ccc(OCc4ccccc4)cc3)C(O)C(C)O2)Oc2ccc(cc2Cl)C1O (stereo not drawn) [Compound 223]	2 (≈ 1.1 µM)	4 (≈ 2.21 µM)	8 (≈ 4.42 µM)	8 (≈ 4.42 µM)	2 (≈ 1.1 µM)	16 (≈ 8.83 µM)	2 (≈ 1.1 µM)	64 (≈ 35.3 µM)
CCCCCCCCCCN(CCCCCCCCCC)CC(=O)NC1(C)CC(OC2C(Oc3c4cc5cc3Oc3ccc(cc3Cl)C(O)C(NC(=O)C(CC(C)C)NC)C(=O)NC(CC(N)=O)C(=O)NC5C(=O)NC3C(=O)NC(C(=O)NC(C(=O)O)c5cc(O)cc(O)c5-c5cc3ccc5O)C(OC3CC(C)(N)C(O)C(C)O3)c3ccc(cc3)O4)OC(CO)C(O)C2O)OC(C)C1O (stereo not drawn) [Compound 194]	2 (≈ 1.06 µM)	2 (≈ 1.06 µM)	8 (≈ 4.22 µM)	8 (≈ 4.22 µM)	2 (≈ 1.06 µM)	8 (≈ 4.22 µM)	4 (≈ 2.11 µM)	16 (≈ 8.44 µM)
CCCCOc1ccc(CNCC(=O)NC2(C)CC(OC3C(Oc4c5cc6cc4Oc4ccc(cc4Cl)C(O)C4NC(=O)C(NC(=O)C6NC(=O)C(CC(N)=O)NC(=O)C(NC(=O)C(CC(C)C)NC)C(O)c6ccc(c(Cl)c6)O5)c5ccc(O)c(c5)-c5c(O)cc(O)cc5C(C(=O)O)NC4=O)OC(CO)C(O)C3O)OC(C)C2O)cc1 (stereo not drawn) [Compound 218]	0.13 (≈ 0.0779 µM)	0.13 (≈ 0.0779 µM)	0.5 (≈ 0.3 µM)	1 (≈ 0.599 µM)	0.5 (≈ 0.3 µM)	>64	1 (≈ 0.599 µM)	>64
